Experimental data taken from patent publication US20050090529A1, “3,5 Disubstituted indazole compounds with nitrogen-bearing 5-membered heterocycles, pharmaceutical compositions, and methods for mediating or inhibiting cell proliferation” (PFIZER INC, priority 2003, published 2005).

Tested on: Cyclin-dependent kinase
Test: Cyclin-dependent kinase inhibition, % inhibition at 10 nM (library Examples 99-270)
Type: biochemical
Conditions: 10 nM compound
In short: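 Enzyme starts the reaction at 30° C, which runs 20 min with 25 μM [³²P/³³P]ATP and protein substrate (pH 7.4, 10 mM MgCl2, 2% DMSO). After EDTA quench, membrane-bound labelled substrate is read by phosphorimaging following acid washes.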

Going from `CCNCc1cncc(-c2ccc3[nH]nc(-c4ncc(C(=O)N5CCC(O)(Cc6ccccc6)CC5)[nH]4)c3c2)c1C` [Example 141, 4-benzyl-1-{[2-(5-{5-[(ethylamino)methyl]-4-methylpyridin-3-yl}-1H-indazol-3-yl)-1H-imidazol-5-yl]carbonyl}pipendin-4-ol] to `CCNCc1cncc(-c2ccc3[nH]nc(-c4ncc(C(=O)N5CCN(c6ccccn6)CC5)[nH]4)c3c2)c1C` [Example 115, ethyl{[4-methyl-5-(3-{5-[(4-pyridin-2-piperazin-1-yl)carbonyl]-1H-imidazol-yl}-1H-indazol-5-yl)pyridin-3-yl]methyl}amine], the “% Inhib @ 10 nM” value rises from 71% to 72%.

Going from `CCNCc1cncc(-c2ccc3[nH]nc(-c4ncc(C(=O)N(CCOC)CCOC)[nH]4)c3c2)c1C` [Example 232, 2-(5-{5-[(ethylamino)methyl]-4-methylpyridin-3-yl}-1H-indazol-3-yl)-N,N-bis(2-methoxyethyl)-1H-imidazole-5-carboxamide] to `CCNCc1cncc(-c2ccc3[nH]nc(-c4ncc(C(=O)N(CC)CC)[nH]4)c3c2)c1C` [Example 132, N,N-diethyl-2-(5-{5-[(ethylamino)methyl]-4-methylpyridin-3-yl}-1H-indazol-3-yl)-1H-imidazxole-5-carboxamide], the “% Inhib @ 10 nM” value rises from 58% to 80%.

First: CCNCc1cncc(-c2ccc3[nH]nc(-c4ncc(C(=O)N(C)CC)[nH]4)c3c2)c1C [Example 178, N-ethyl-2-(5-{5-[(ethylamino)methyl]-4-methylpyridin-3-yl}-1H-indazol-3-yl)-N-methyl-1H-imidazole-5-carboxamrde]
Second: CCNCc1cncc(-c2ccc3[nH]nc(-c4ncc(C(=O)N(C)C)[nH]4)c3c2)c1C [Example 190, 2-(5-{5-[(ethylamino)methyl}-4-methylpyridin-3-yl}-1H-indazol-3-yl)-N,N-dimethyl-1H-imidazole-5-carboxamide]
The “% Inhib @ 10 nM” value of the first is lower: 73% for the first, 76% for the second.

First: CCNCc1cncc(-c2ccc3[nH]nc(-c4ncc(C(=O)N5CCCN(C(C)=O)CC5)[nH]4)c3c2)c1C [Example 179, {[5-(3-(5-[(4-acetyl-1,4-diazepan-1-yl)carbonyl]-1H-imidazol-2-yl]-1H-indazol-5-yl)-4-methylpyridin-3-yl]methyl}ethylamine]
Second: CCNCc1cncc(-c2ccc3[nH]nc(-c4ncc(C(=O)N5CCN6CCCC6C5)[nH]4)c3c2)c1C (stereo not shown) [Example 209]
The “% Inhib @ 10 nM” value of the first is higher: 53% for the first, 37% for the second.

Going from `CCNCc1cncc(-c2ccc3[nH]nc(-c4ncc(C(=O)NCCC5=CCCCC5)[nH]4)c3c2)c1C` [Example 131] to `CCNCc1cncc(-c2ccc3[nH]nc(-c4ncc(C(=O)NCCc5ccccn5)[nH]4)c3c2)c1C` [Example 102], the “% Inhib @ 10 nM” value rises from 57% to 81%.

Going from `CCNCc1cncc(-c2ccc3[nH]nc(-c4ncc(C(=O)N5CCC(c6ccn[nH]6)CC5)[nH]4)c3c2)c1C` [Example 250, ethyl({4-methyl-5-[3-(5-{[4-(1H-pyrazol-5-yl)piperidin-1-yl]carbonyl}-H-imidazol-2-yl)-1 H-indazol-5-yl]pyridin-3-yl}methyl)amine] to `CCNCc1cncc(-c2ccc3[nH]nc(-c4ncc(C(=O)N5CCN(c6ccncc6)CC5)[nH]4)c3c2)c1C` [Example 144, ethyl{[4-methyl-5-(3-{5-[(4-pyridin-4-ylpiperazin-1-yl)carbonyl]-1H-imidazol-2-yl}-1H-indazol-5-yl)pyridin-3-yl]methyl}amine], the “% Inhib @ 10 nM” value falls from 62% to 30%.

First: CCNCc1cncc(-c2ccc3[nH]nc(-c4ncc(C(=O)NCC5COCCO5)[nH]4)c3c2)c1C (stereo not shown) [Example 237, N-(1,4-dioxan-2-ylmethyl)-2-(5-{5-[(ethyamino)methy]-4-methypyridin-3-yl}-1H-indazol-3-yl)-1H-imidazole-5-carboxamide]
Second: CCNCc1cncc(-c2ccc3[nH]nc(-c4ncc(C(=O)NCCC5CCOCC5)[nH]4)c3c2)c1C [Example 243, 2-(5-{5-[(ethylamino)methyl]-4-methylpyridin-3-yl}-1H-indazol-3-yl)-N-[2-(tetrahydro-2H-pyran-4-yl)ethyl]-1H-imidazole-5-carboxamide]
The “% Inhib @ 10 nM” value of the first is higher: 47% for the first, 34% for the second.

Going from `CCNCc1cncc(-c2ccc3[nH]nc(-c4ncc(C(=O)N(C)CCN(C)C)[nH]4)c3c2)c1C` [Example 156] to `CCNCc1cncc(-c2ccc3[nH]nc(-c4ncc(C(=O)N5CCC(S(C)(=O)=O)C5)[nH]4)c3c2)c1C` (stereo not shown) [Example 240], the “% Inhib @ 10 nM” value rises from 25% to 71%.

Going from `CCNCc1cncc(-c2ccc3[nH]nc(-c4ncc(C(=O)NC5Cc6ccccc6C5)[nH]4)c3c2)c1C` [Example 158, N-(2,3-dihydro-1H-inden-2-yl)-2-(5-{5-[(ethylamino)methyl]-4-methylpyridin-3-yl}-1H-indazol-3-yl)-1H-imidazole-5-carboxamide] to `CCNCc1cncc(-c2ccc3[nH]nc(-c4ncc(C(=O)N[C@H]5CCc6ccccc65)[nH]4)c3c2)c1C` [Example 162], the “% Inhib @ 10 nM” value rises from 56% to 81%.

Going from `CCNCc1cncc(-c2ccc3[nH]nc(-c4ncc(C(=O)N5CCCC(O)(CN6CCCC6=O)CC5)[nH]4)c3c2)c1C` (stereo not shown) [Example 267, 1-[(1-{[2-(5-{5-[(ethylamino)methyl]-4-methylpyridin-3-yl}-1H-indazol-3-yl)-1H-imidazol-5-yl]carbonyl}-4-hydroxyazepan-4-yl)methyl]pyrrolidin-2-one] to `CCNCc1cncc(-c2ccc3[nH]nc(-c4ncc(C(=O)N5CCC6(CC5)CNC(=O)C6)[nH]4)c3c2)c1C` [Example 205, 8-{[2-(5-{5-[(ethylamino)methyl]-4-methylpyridin-3-yl}-1H-indazol-3-yl)-1H-imidazol-5-yl]carbanyl}-2,8-diazaspiro[4.5]decan-3-one], the “% Inhib @ 10 nM” value rises from 21% to 40%.

Going from `CCNCc1cncc(-c2ccc3[nH]nc(-c4ncc(C(=O)N[C@@H]5CCCC[C@H]5OCc5ccccc5)[nH]4)c3c2)c1C` [Example 203, N-[(1R,2R)-2-(benzyloxy)cyclohexyl]-2-(5-{5-[(ethylamino)methyl]-4-methylpyridin-3-yl)-1H-indazol-3-yl)-1H-imidazole-5-carboxamide] to `CCNCc1cncc(-c2ccc3[nH]nc(-c4ncc(C(=O)NCc5ccc(C(=O)OC)cc5)[nH]4)c3c2)c1C` [Example 194, methyl-4-[({[2-(5-{5-[(ethylamino)methyl]-4-methylpyridin-3-yl}-1H-indazol-3-yl)-1H-imidazol-5-yl]carbonyl}amino)methyl]benzoate], the “% Inhib @ 10 nM” value rises from 31% to 65%.

Compared with `CCNCc1cncc(-c2ccc3[nH]nc(-c4ncc(C(=O)N5C[C@H](C(=O)OC)[C@@H](c6cccnc6)C5)[nH]4)c3c2)c1C` [Example 220, methyl(3R,4S)-1-{[2-(5-{5-[(ethylamino)methyl]-4-methylpyridin-3-yl}-1H-indazol-3-yl)-1H-imidazol-5-yl]carbonyl}-4-pyridin-3-ylpyrrolidine-3-carboxylate], `CCNCc1cncc(-c2ccc3[nH]nc(-c4ncc(C(=O)N5Cc6ccccc6C(c6ccccn6)C5)[nH]4)c3c2)c1C` (stereo not shown) [Example 218, ethyl{[4-methyl-5-(3-{5-[(4-pyridin-2-yl-3,4-dihydroisoquinolin-2(1H)-yl)carbonyl]-1H-imidazxol-2-yl}-1H-indazol-5-yl)pyridin-3-yl]methyl}amine] is higher in “% Inhib @ 10 nM” value: 46% for the first, 47% for the second.

With `CCNCc1cncc(-c2ccc3[nH]nc(-c4ncc(C(=O)NCc5cc6cc[nH]c6cn5)[nH]4)c3c2)c1C` [Example 215] the “% Inhib @ 10 nM” value was 72%.
